Consider 14 compounds from patent US6858574B2, “Process for making perfume containing surfactant compositions having perfume burst when diluted” (Unilever Home & Personal Care USA, division of Conopco, Inc., priority 2002, dated 2005).

A short description of data set [1]: Fragrance burst (perfume headspace) of single perfumes in 5% sodium laurate shower product diluted through the CMC. The conditions noted are these: diluted through the CMC (FIG. 3). The data set is classed as physicochemical. The procedure:
It is precisely this “burst” or increase in headspace (e.g., from start of dilution up until CMC) and methods for determining in what compositions it will occur that is the basis of the subject invention.
Several different fragrance molecules were tested experimentally to validate the theoretical predictions. Limonene, p-cymene, α-pinene, tetrahydrolinolool, α-ionone, γ-methyl ionone, benzyl acetate and 2-phenoxylethanol were tested in a 5% sodium laurate shower product and diluted a number of times through the CMC (FIG. 3).

For data set [2] the following is noted: cited from earlier work.
A short description of data set [3]: Fragrance burst in shower liquids with different surfactant concentrations. The data set is classed as physicochemical. Conditions: sodium laurate at 5, 10, 15 (20) wt. % (FIG. 6).
Data set [4] can be described thus: Fragrance burst in shower liquids with surfactants of different CMC. It counts as physicochemical. The conditions noted are these: 5% sodium laureth sulfate (CMC=0.0011) vs 5% sodium laurate (CMC=0.005) (FIG. 8). As for the experimental part: Limonene and γ-Methyl Ionone were tested in two different shower liquid samples. One product was formulated with 5% sodium laurate (CMC=0.005 wt/wt) and the second with 5% sodium laureth sulfate (CMC=0.0011 wt/wt) (FIG. 8).

Data set [5] can be described thus: GC headspace vs dilution of components of a perfume mixture in 5 wt. % sodium laurate formulation. It counts as physicochemical. The conditions noted are these: twelve-component perfume mixture, 5 wt. % sodium laurate (FIG. 9). As for the experimental part: A typical fully formulated perfume used in a commercial product, e.g., personal wash formulation, usually is a multi-component composition in which the properties of each perfume component can vary dramatically. A typical perfume mixture in a 5 wt. % sodium laurate formulation was tested for its “perfume burst” behaviour upon dilution. […] Each component has a unique dilution curve (GC headspace vs. dilution factor) governed by the factors (hydrophobicity, volatility, etc) discussed previously.

The nature of data set [6]: Critical micellization concentration (CMC) of surfactants. It counts as physicochemical. An excerpt: As noted, the perfume burst is affected not only by the perfume properties, but also by properties of the formulation in which the perfume is found. Thus, the number and type of surfactant micelles found in a surfactant solution also has an effect. […] The critical micellization concentration is defined as the surfactant concentration at which micelles begin to form from unassociated surfactant monomers (M. J. Rosen, Surfactants and Interfacial Phenomena, 2nd Ed., 1989). Conversely, in a surfactant with low critical micelle concentration (e.g., one where micelles do form easily or, stated differently, don't break apart as readily once formed), a perfume, being generally more hydrophobic, tends to stay in the surfactant more readily. As a result, the perfume will tend not to “burst” (increase perfume headspace) as readily and, to achieve more headspace, more dilution may be required. The CMC of the surfactant system also affects “perfume burst”. Thus, for example, a surfactant system of relatively low CMC (e.g., sodium lauryl ether sulfate, also known as SLES) lowers the PBI and can greatly reduce the expected “perfume burst” on dilution. By contrast, surfactant system of relatively higher CMC (e.g., sodium laurate compared to SLES) would raise PBI and can thus increase “perfume burst” on dilution.

Read-outs that look alike come from different tables or passages of the source. Marks after values point to notes of the source that are not given here.

In data set [1], `CC(=O)/C=C/C1C(C)=CCCC1(C)C` (stereo not drawn) [α-ionone] yielded a fragrance burst of 430%.

As for `CCCCCCCCCCCCOC(=O)CCS(=O)(=O)[O-].[Na+]` [C12H25OOC(CH2)2SO3^−Na^+ (SCI)], the “CMC (wt./wt.)” value in data set [2] (30° C.) was 0.00076* (30° C.) wt./wt.

As to Sodium laureth sulfonate (3EO), in data set [2] (50° C.), the “CMC (wt./wt.)” value was 0.00084*** wt./wt.

For the compound `CCC(C)(O)CCCC(C)C` (centres unmarked) [Tetrahydrolinolool], the fragrance burst in data set [1] was determined as 320%.

With `CC(=O)/C(C)=C/C1C(C)=CCCC1(C)C` (centres unmarked) [γ-methyl ionone], the fragrance burst in data set [1] stood at 460%. In data set [3], the “effect of surfactant concentration on fragrance burst” value (“effect of surfactant concentration” below) is “maximum fragrance burst is reached with fewer dilutions in the 5% soap product”. For the same compound, the “effect of surfactant CMC on fragrance burst” value in data set [4] is on record as “lower overall fragrance burst”. Besides, in data set [5], the “dilution behaviour of component (GC headspace)” value is given as “as high as seven times”.

With `CC(C)[C@@H]1CC[C@@H](C)CC1=O` [Menthone], the “effect of surfactant concentration” value in data set [3] is reported as “maximum fragrance burst is reached with fewer dilutions in the 5% soap product”.

In the case of `Cc1ccc(C(C)C)cc1` [p-Cymene], the fragrance burst in data set [1] came out at 120%.

With `CCCCCCCC(=O)NCCC[N+](C)(C)CC(=O)[O-]` [Caprylamidopropyl betaine], the “CMC (wt./wt.)” value in data set [6] was determined as 0.00032 wt./wt.

For the compound `OCCOc1ccccc1` [2-Phenoxyethanol], the fragrance burst result in data set [1] is recorded as “no fragrance burst at all”.

As to Sodium laureth sulfonate (2EO), the “CMC (wt./wt.)” value in data set [2] (50° C.) was 0.0011*** wt./wt. Also, the CMC was 0.0011 wt/wt in data set [2] (Example 9) and 0.1 wt. % in data set [2] (Example 11).

Turning to `C=C(C)[C@H]1CC=C(C)CC1` [Limonene], the fragrance burst in data set [1] is about 95%. Moreover, the “effect of surfactant concentration” value in data set [3] is listed as “maximum fragrance burst is reached with fewer dilutions in the 5% soap product”. Besides, in data set [4], the “effect of surfactant CMC on fragrance burst” value was “lower overall fragrance burst”.

Regarding `CCCCCCCCCCCC(=O)[O-].[Na+]` [Sodium laurate], the CMC in data set [2] (Example 9) is 0.005 wt/wt; in data set [2] (Example 11) it was 0.5 wt. %.

Compound `CC1=CCC2CC1C2(C)C` (stereo not drawn) [α-pinene] registered a fragrance burst in data set [1] of 50%.

For `CC(=O)OCc1ccccc1` [Benzyl Acetate], the fragrance burst result in data set [1] is reported as “no fragrance burst at all”. In addition, the “dilution behaviour of component (GC headspace)” value in data set [5] is listed as “perfume headspaces decrease upon dilution”.
